Assay results from patent US7691601B2, “Medium for detecting and/or identifying of microorganisms” (priority 2003, dated 2010).

Legend:
Candida krusei = experiment: Coloration of Candida krusei colonies on detection medium; format: cell-based; design: key: 0=absence of coloration; 0.5=trace coloration; 1=weak coloration; 2=strong coloration; settings: Table 4, 75 mg/l
Experimental: (§1) Preparation of the detection medium: A volume of 250 ml of detection medium is prepared from a powdered medium having the following composition:
(§2) Melting is carried out at 100° C., and the medium is autoclaved at 121° C. for 15 minutes. The additives are then added to the medium: Magenta C8 (500 mg/l; B-7102, BIOSYNTH, Staad, Switzerland); X-glucoside (75 mg/l; B-7250, BIOSYNTH, Staad, Switzerland); cefsulodine (10 mg/l; C 4786, Sigma, St Quentin Fallavier, France), and also the esterase inhibitor: • ? O,O-diethyl p-nitrophenyl phosphate: 5 mg/l • ? O,O-dimethyl p-nitrophenyl phosphate: 25 mg/l or • ? O,O-di-(2-chloroethyl)-O-(3-chloro-4-methylcoumarin-7-yl)phosphate: 75 mg/l
(§3) The various selection media thus obtained are then poured into Petri dishes.
(§4) Seeding of yeast of the Candida genus: 10 μl of stools are deposited onto a Petri dish, and this stool suspension is mixed or not mixed with 10 μl of a suspension of Candida and isolated as 3 dials on a Petri dish. Various stools and various strains of Candida genus originating from the applicant's collection are used according to this protocol. The Petri dishes are incubated at 37° C. for 24 hours.
(§5) The appearance of a coloration at the point of deposit of the stool and in the Candida colonies is read according to a semi-quantitative scale: • 0=absence of coloration • 0.5=trace coloration • 1=weak coloration • 2=strong coloration.

Candida albicans = experiment: Coloration of Candida albicans colonies on detection medium; format: cell-based; design: key: 0=absence of coloration; 0.5=trace coloration; 1=weak coloration; 2=strong coloration; settings: Table 4, 75 mg/l, stool B
Experimental: as §1, §2, §3, §4, §5

Candida dubliniensis = experiment: Coloration of Candida dubliniensis colonies on detection medium; format: cell-based; design: key: 0=no coloration; 0.5=trace of coloration; 1=weak coloration; 2=strong coloration; settings: Table 4, 75 mg/l
Experimental: as §1, §2, §3, §4, §5

Salmonella Paratyphi A = experiment: Coloration of Salmonella Paratyphi A colonies on detection medium; format: cell-based; design: key: 0=no coloration; 0.5=trace of coloration; 1=weak coloration; 2=strong coloration
Experimental: as §1
(§6) Melting is carried out at 100° C., and the medium is autoclaved at 121° C. for 15 minutes. The additives are then added to the medium: Magenta C8 (500 mg/l; B-7102, BIOSYNTH, Staad, Switzerland); X-glucoside (75 mg/l; B-7250, BIOSYNTH, Staad, Switzerland); cefsulodine (10 mg/l; C 4786, Sigma, St Quentin Fallavier, France) and various concentrations of the inhibitor O,O-diethyl p-nitrophenyl phosphate (Paraoxon® ethyl; CAS No. 311-45-5; 36186, Riedel-de Haën, St Quentin Fallavier, France; 0; 1; 5 or 10 mg/l).
(§7) The various detection media thus obtained are then poured into Petri dishes.
(§8) Seeding of Salmonella bacteria: 10 μl of stools are deposited onto a Petri dish, this stool suspension is mixed or not mixed with 10 μl of a suspension of Salmonella (0.5 McF) and isolated as 3 dials on a Petri dish. Various […] and various Salmonella strains originating from the applicant's collection are used according to this protocol. The Petri dishes are incubated at 37° C. for 24 hours. The appearance of a coloration at the point of deposit of the stool (“deposit” column) and at the Salmonella colony (“colony” column) is read according to a semi-quantitative scale: • 0=no coloration • 0.5=trace of coloration • 1=weak coloration • 2=strong coloration The results obtained are given in Table 1.
(§9) Preparation of the detection medium: 250 ml of the medium of Example 1, in which the O,O-diethyl p-nitrophenyl phosphate is replaced with various concentrations of O,O-di-(2-chloroethyl)-O-(3-chloro-4-methylcoumarin-7-yl)phosphate (Haloxon®; CAS No. 321-55-1; R276995, Sigma, St Quentin Fallavier, France; 0; 1; 10; 100 or 1000 mg/l), are prepared according to the method of Example 1.
as §3
(§10) Seeding of Salmonella bacteria: The Petri dishes are inoculated, incubated and read as in Example 1.

Salmonella bacteria = experiment: Enzymes originating from the bacteria (Salmonella colonies), overall statement; format: cell-based; settings: summary in words
Experimental: as §8, §9, §3, §10

[1] = system: free esterases in a stool sample; experiment: Coloration at the point of deposit of the stool on Salmonella detection medium (Magenta C8); format: biochemical; design: key to Deposit coloration: 0=no coloration; 0.5=trace of coloration; 1=weak coloration; 2=strong coloration; settings: for Deposit coloration: Table 3
Experimental: as §1, §6, §7, §8
as §6, with “O,O-dimethyl” for “O,O-diethyl”, “methyl;” for “ethyl;”, “950-35-6;” for “311-45-5; 36186,”, “5, 10, 25” for “0; 1; 5 or 10”
as §10, §9, §3

free esterases in stools = experiment: Coloration at the point of deposit of the stool on Candida detection medium; format: biochemical; design: key: 0=absence of coloration; 0.5=trace coloration; 1=weak coloration; 2=strong coloration; settings: Table 4, 75 mg/l, no strain
Experimental: as §1, §2, §3, §4, §5

Cc1c(Cl)c(=O)oc2cc(OP(=O)(OCCCl)OCCCl)ccc12 [O,O-di-(2-chloroethyl)-O-(3-chloro-4-methylcoumarin-7-yl) phosphate]
Colonies coloration (Candida krusei; stool A): 0.5 | Colonies coloration (Candida krusei; stool B): 0.5 | Colonies coloration (Candida albicans): 0.5 | Colonies coloration (Candida dubliniensis; stool A): 1 | Colonies coloration (Candida dubliniensis; stool B): 1 | Colonies coloration (Salmonella Paratyphi A; Table 3, 1 mg/l, stool A): 2 | Colonies coloration (Salmonella Paratyphi A; Table 3, 1 mg/l, stool B): 2 | Colonies coloration (Salmonella Paratyphi A; Table 3, 10 mg/l, stool A): 2 | Colonies coloration (Salmonella Paratyphi A; Table 3, 10 mg/l, stool B): 2 | Colonies coloration (Salmonella Paratyphi A; Table 3, 100 mg/l, stool A): 1 | Colonies coloration (Salmonella Paratyphi A; Table 3, 100 mg/l, stool B): 1 | Colonies coloration (Salmonella Paratyphi A; Table 3, 1000 mg/l, stool A): 0.5 | Colonies coloration (Salmonella Paratyphi A; Table 3, 1000 mg/l, stool B): 0.5 | Enzymes originating from the bacteria (Salmonella bacteria): not inhibited | Deposit coloration ([1]; 1 mg/l, stool A, Salmonella Enteritidis): 1 | Deposit coloration ([1]; 1 mg/l, stool A, Salmonella Paratyphi A): 1 | Deposit coloration ([1]; 1 mg/l, stool A, Salmonella Typhi): 1 | Deposit coloration ([1]; 1 mg/l, stool A, no strain): 1 | Deposit coloration ([1]; 1 mg/l, stool B, Salmonella Enteritidis): 0 | Deposit coloration ([1]; 1 mg/l, stool B, Salmonella Paratyphi A): 0 | Deposit coloration ([1]; 1 mg/l, stool B, Salmonella Typhi): 0 | Deposit coloration ([1]; 1 mg/l, stool B, no strain): 1 | Deposit coloration ([1]; 10 mg/l, stool A, Salmonella Enteritidis): 1 | Deposit coloration ([1]; 10 mg/l, stool A, Salmonella Paratyphi A): 1 | Deposit coloration ([1]; 10 mg/l, stool A, Salmonella Typhi): 1 | Deposit coloration ([1]; 10 mg/l, stool A, no strain): 1 | Deposit coloration ([1]; 10 mg/l, stool B, Salmonella Enteritidis): 0 | Deposit coloration ([1]; 10 mg/l, stool B, Salmonella Paratyphi A): 0 | Deposit coloration ([1]; 10 mg/l, stool B, Salmonella Typhi): 0 | Deposit coloration ([1]; 10 mg/l, stool B, no strain): 0.5 | Deposit coloration ([1]; 100 mg/l, stool A, Salmonella Enteritidis): 0.5 | Deposit coloration ([1]; 100 mg/l, stool A, Salmonella Paratyphi A): 0.5 | Deposit coloration ([1]; 100 mg/l, stool A, Salmonella Typhi): 0.5 | Deposit coloration ([1]; 100 mg/l, stool A, no strain): 0.5 | Deposit coloration ([1]; 100 mg/l, stool B, Salmonella Enteritidis): 0 | Deposit coloration ([1]; 100 mg/l, stool B, Salmonella Paratyphi A): 0 | Deposit coloration ([1]; 100 mg/l, stool B, Salmonella Typhi): 0 | Deposit coloration ([1]; 100 mg/l, stool B, no strain): 0 | Deposit coloration ([1]; 1000 mg/l, stool A, Salmonella Enteritidis): 0 | Deposit coloration ([1]; 1000 mg/l, stool A, Salmonella Paratyphi A): 0 | Deposit coloration ([1]; 1000 mg/l, stool A, Salmonella Typhi): 0 | Deposit coloration ([1]; 1000 mg/l, stool A, no strain): 0 | Deposit coloration ([1]; 1000 mg/l, stool B, Salmonella Enteritidis): 0 | Deposit coloration ([1]; 1000 mg/l, stool B, Salmonella Paratyphi A): 0 | Deposit coloration ([1]; 1000 mg/l, stool B, Salmonella Typhi): 0 | Deposit coloration ([1]; 1000 mg/l, stool B, no strain): 0 | Aspecific enzymatic reactions due to the presence of free enzymes ([1]; stools, Salmonella detection medium, summary in words): greatly inhibited | Deposit coloration (free esterases in stools; stool A): 0 | Deposit coloration (free esterases in stools; stool B): 0
